The subject of experiment [1] is DAOY cells. As to the kind of experiment: Intracellular ROS levels (H2DCF-DA flow cytometry). In kind it is cell-based, human. The following applies: 1 mM H2O2 1 h. As to the method:
(§1) Intracellular ROS levels were measured as described previously. Briefly, cells were treated with various concentrations of IQ10 for 4 h either alone or with subsequent exposure to 1 mM H2O2 (ROS positive control) for 1 h. Cells treated with DMSO, at the same dilution ratio as IQ10, were set as negative controls. Cells were then incubated with the cell-permeable dye 2′,7 ′-dichlorodihydrofluorescein diacetate (H2DCF-DA, Sigma) in fresh medium at a final concentration of 1 μM at 37 °C for 30 min. Cells were harvested and intracellular ROS levels assessed by measurement of fluorescence using a MACSquant flow cytometer (Miltenyi Biotec). A gate was set to include only healthy living cells in the analysis. Data were analysed using FlowJo 7.6.1 software (Tree Star) to obtain the median fluorescence intensity (MFI) of each group representing the amount of intracellular ROS generation.
A general note: In flow cytometry, cells or beads pass a laser one at a time.

The subject of experiment [2] is UW228-3 cells. As to the kind of experiment: Intracellular ROS levels (H2DCF-DA flow cytometry). In kind it is cell-based, human. The following applies: UW228-3, 1 mM H2O2 1 h. As to the method:
as §1

Experiment [3] relates to UW228-3 cells. As to the kind of experiment: Clonogenic survival assay. The following applies: Homo sapiens; UW228-3, 48 h post-treatment. The class given is cell-based. As to the method:
(§2) Cells collected from the growth assay (48 h time point) were counted and plated at low-density, in triplicate, and incubated at 37 °C, 5% CO2, undisturbed, for colony formation. After 12 days (21 days for KNS42), colonies were fixed (50% methanol in PBS), stained (0.5% crystal violet solution) and counted manually. Any cluster of cells greater than 50 in number was counted as a surviving colony. The plating efficiency (PE) was calculated as number of control colonies formed/number of control cells seeded. For single-agent treatment, drug or radiation, the surviving fraction (SF) was calculated as follows: number of colonies formed after treatment / (number of cells seeded × PE). […]
(§3) Cells were seeded in ultra-low attachment round-bottom 96-well plates (Corning), aggregated by centrifugation (2000 rpm/10 min), and allowed to grow for 4 days under standard culture conditions to form mature spheroids. […] Viability was assessed using the resazurin reduction assay (CellTiter-Blue, Promega) following the manufacturer’s protocol. […] Fluorescence was measured with an excitation wavelength of 560 nm and emission 590 nm on a plate reader. […] Six spheroids per condition were assessed in each experiment. The clonogenicity of cells cultured in spheroids was assessed using conventional 2D clonogenic survival assay as described above. […]

The test system of experiment [4] is DAOY cells. Put plainly: Clonogenic survival assay. The class given is cell-based. The following applies: Homo sapiens, 48 h post-treatment. As to the method:
as §2, §3

Experiment [5] concerns DAOY cells. As to the kind of experiment: Growth assay (cell counts). The class given is cell-based. The following applies: Homo sapiens, 2D normoxia. As to the method:
(§4) Cells (2 × 10^5) were seeded in six-well plates, allowed to adhere overnight and then treated, in triplicate, with different concentrations of TMZ (0–1000 μM) or IQ10 (0–1 µM) for up to 72 h under normoxic or hypoxic conditions. DMSO was added to the negative control groups at the same volume equivalent to that in the treatment groups. For hypoxic experiments, cells were pre-incubated at 1% O2 for 24 h prior to drug treatment. Cells were then treated with different concentrations of IQ10 for up to an additional 72 h under hypoxia. Normoxic controls were always assessed in parallel to hypoxic-treated groups. Every 24 h after initiating drug treatment, cells were trypsinised and counted using a Countess system. Cell counts were recorded, analysed and plotted over the 72 h period.
(§5) Cells were seeded, in triplicate, in 24-well plates, incubated overnight and transfected with either a pre-designed siRNA directed against human TrxR-1 (SI00050876, target sequence, 5′-[…]-3′, Qiagen) or mock-transfected with a scrambled siRNA (Allstars Negative Control siRNA, Qiagen). Briefly, 2.5 μL of 2 μM siRNA and 4.5 μL HiPerFect transfection reagent (Qiagen) were combined in 100 μL medium (serum and antibiotic free) and incubated at room temperature for 10 min to allow complex formation. Reaction mixtures were then added to 400 μL of fresh medium. Medium was aspirated from wells and replaced with the appropriate 500 μL of transfection solution. After 48 h of incubation, the cells were re-plated, allowed to adhere overnight and treated with various concentrations of IQ10 for an additional 48 h. Growth curve and/or clonogenic survival assays were used as the endpoint to assess the drug effects. Western blotting analysis of TrxR and β-actin (as a loading control) were used to confirm that TrxR expression was suppressed for the duration of the experiment.

Experiment [6] concerns SF188 cells. As to the kind of experiment: Growth assay (cell counts). In kind it is cell-based. The following applies: Homo sapiens, SF-188, 2D normoxia. The method, then: as §4, §5
Experiment [7] deals with SNB19 cells. Put plainly: Clonogenic survival assay. The class given is cell-based. The following applies: Homo sapiens, SNB-19; SNB19, 48 h post-treatment. As to the method: (§6) Cells collected from the growth assay (48 h time point) were counted and plated at low-density, in triplicate, and incubated at 37 °C, 5% CO2, undisturbed, for colony formation. After 12 days (21 days for KNS42), colonies were fixed (50% methanol in PBS), stained (0.5% crystal violet solution) and counted manually. Any cluster of cells greater than 50 in number was counted as a surviving colony. The plating efficiency (PE) was calculated as number of control colonies formed/number of control cells seeded. For single-agent treatment, drug or radiation, the surviving fraction (SF) was calculated as follows: number of colonies formed after treatment / (number of cells seeded × PE). For drug radiation combination experiments, cytotoxicity of drug treatment was accounted for by calculating SF as follows: number of colonies formed from each radiation dose / (number of cells seeded × PE × SF of drug-treated cell at 0 Gy).

Experiment [8] has as its system KNS42 cells. As to the kind of experiment: Clonogenic survival assay. In kind it is cell-based. The following applies: Homo sapiens, KNS-42; KNS42, 48 h post-treatment. The method, then: as §6
The test system of experiment [9] is SF188 cells. As to the kind of experiment: Clonogenic survival assay. The class given is cell-based. The following applies: Homo sapiens, SF-188; SF188, 48 h post-treatment. The method, then: as §6
Cells were seeded, in triplicate, in 24-well plates, incubated overnight and transfected with either a pre-designed siRNA directed against human TrxR-1 (SI00050876, target sequence, 5′-[…]-3′, Qiagen) or mock-transfected with a scrambled siRNA (Allstars Negative Control siRNA, Qiagen). […]

Experiment [10] concerns SNB19 cells. As to the kind of experiment: Growth assay (cell counts). In kind it is cell-based. The following applies: Homo sapiens, SNB-19, 2D normoxia. As to the method:
as §4

In experiment [11] the test system is UW228-3 cells. As to the kind of experiment: Growth assay (cell counts). In kind it is cell-based. The following applies: Homo sapiens, 2D normoxia. The method, then:
as §4

The subject of experiment [12] is KNS42 cells. As to the kind of experiment: Growth assay (cell counts). The following applies: Homo sapiens, KNS-42, 2D normoxia. In kind it is cell-based. As to the method:
as §4

Experiment [13] has as its target T1, TrxR (Homo sapiens, UniProt Q16881).
T1 construct: cells were trypsinised, counted and lysed in M-PER protein extraction reagent; endogenous in cells; host or cells: SF188, DAOY, UW228-3
T1 sequence (Q16881 151-649 limits assumed): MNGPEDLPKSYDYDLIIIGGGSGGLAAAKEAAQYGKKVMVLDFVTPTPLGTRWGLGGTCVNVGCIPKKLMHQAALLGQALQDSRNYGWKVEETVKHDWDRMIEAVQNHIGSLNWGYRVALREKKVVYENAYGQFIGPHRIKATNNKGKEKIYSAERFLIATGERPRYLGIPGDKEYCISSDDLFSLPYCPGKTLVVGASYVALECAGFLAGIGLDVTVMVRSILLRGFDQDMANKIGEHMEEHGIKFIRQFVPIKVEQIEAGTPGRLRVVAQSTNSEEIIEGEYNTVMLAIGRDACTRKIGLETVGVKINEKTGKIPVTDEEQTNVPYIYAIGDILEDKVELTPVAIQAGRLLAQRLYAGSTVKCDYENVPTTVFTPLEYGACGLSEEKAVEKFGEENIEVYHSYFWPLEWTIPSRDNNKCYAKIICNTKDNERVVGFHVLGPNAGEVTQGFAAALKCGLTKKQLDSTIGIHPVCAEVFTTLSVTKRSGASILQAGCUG
As to the kind of experiment: TrxR activity assay (endpoint insulin reduction) on lysates of drug-treated cells. The class given is cell-based. The following applies: 1 μM, 4 h; SF188, DAOY and UW228-3 cells. The method, then: Following incubation, with various concentrations of IQ10 or with 1 μM of auranofin, for 4/48 h, cells were trypsinised, counted and lysed in M-PER protein extraction reagent (Thermo Fisher) for 20 min. Lysates were analysed immediately or stored for future use at − 80 °C. The Bio-Rad protein assay kit (Bio-Rad Laboratories) was used to measure the protein concentration of each sample. TrxR activity was measured in 96-well plates using the endpoint insulin reduction assay as described previously with appropriate modifications. Briefly, the assay mixture contained the following in a final volume of 100 μL HE buffer (100 mM HEPES, pH 7.2; 5 mM EDTA): 80 µg of protein, 2 µM Escherichia coli Trx, 1 mg/ml bovine insulin and 1 mM NADPH. Duplicate samples were used, either with or without exogenous Trx enzyme. […] Absorbance was measured at 405 nm using a microplate reader (FLUOstar OPTIMA, BMG LABTECH). The absorbance of the sample lacking exogenous Trx was subtracted from that of the corresponding sample containing exogenous Trx. The difference in absorbance indicates TrxR function. The amount of functional TrxR was calculated from the standard curve, generated simultaneously, with pure enzymes. The TrxR activity was expressed as the percentage of DMSO-treated control.

Experiment [14] relates to TrxR. More on the design: method as in PMID 17320769. The following applies: ovarian cancer cells; cited from earlier work.

Where only a bound is given, the exact number is not on record here.

For the compound `OO` [H2O2], the “intracellular ROS levels compared to control” value in [1] is 1.4 fold; in experiment [2], 1.5 fold.
One may read the IC50 as the point on the concentration scale where inhibition reaches its midpoint. `Cn1nnc2c(C(N)=O)ncn2c1=O` [TMZ, temozolomide]: the IC50 is 93.1 ± 30 µM in [3]; 464 ± 20.1 µM in experiment [4]; 547 ± 11.6 µM in [5] (24 h); 248 ± 49.8 µM in experiment [5] (48 h); 162 ± 14.3 µM in experiment [5] (72 h); > 1000 µM in [6] (SF188, 24 h). In addition, the IC50 in experiment [6] (SF188, 48 h) was 321 ± 86.8 µM; in [6] (SF188, 72 h) it was 188 ± 24.1 µM; in [7], 63.7 ± 10 µM; in [8], 49.5 ± 11.4 µM; in experiment [9], 15.2 ± 0.9 µM; in experiment [10] (SNB19, 24 h) it was > 1000 µM. The IC50 in [10] (SNB19, 48 h) is > 1000 µM; in experiment [10] (SNB19, 72 h), 980 ± 281 µM; in [11] (UW228-3, 24 h), > 1000 µM; in experiment [11] (UW228-3, 48 h), 314 ± 17.8 µM; in experiment [11] (UW228-3, 72 h), 148 ± 14.7 µM; in experiment [12] (KNS42, 24 h), > 1000 µM. In addition, the IC50 in [12] (KNS42, 48 h) is > 1000 µM; in experiment [12] (KNS42, 72 h), 731 ± 24.3 µM.
Turning to `CC(=O)OC[C@H]1O[C@@H]([S-])[C@H](OC(C)=O)[C@@H](OC(C)=O)[C@@H]1OC(C)=O.CCP(CC)CC.[Au+]` [auranofin], the “average TrxR inhibition” value in experiment [13] is listed as 83–95%. In addition, the “concentrations inhibiting TrxR” value in [14] is reported as “nanomolar concentrations”.

Source of the values: paper PMC9148287, “Cytotoxic and Radiosensitising Effects of a Novel Thioredoxin Reductase Inhibitor in Brain Cancers” (Molecular Neurobiology, 2022).
